This passage reports Ki and EC50 results from US10213415B2, “Compounds as opioid receptor modulators” (JANSSEN PHARMACEUTICA NV, priority 2004, dated 2019).

In one assay the target is T1, delta opioid receptor (Rattus norvegicus, UniProt P33533).
T1 construct: from tissue; host or cells: forebrain of male Wistar rats
The assay is described as follows: Rat Brain Delta Opioid Receptor Binding Assay ([3H]DPDPE). The note with it: rat forebrain membranes, margin of error 10-20%. The procedure, abridged: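 Rat (male Wistar) forebrain membranes in 50 mM Tris-HCl pH 7.4 with 5 mM MgCl2, incubated with ~4 nM [3H]DPDPE for 2.5 h at 25 °C. Bound ligand collected by filtration and scintillation counting. Single-concentration data given as % inhibition of specific binding; concentration series fitted to Ki.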

In assay [1] the target is T2, human delta subtype 2 opioid receptor (Homo sapiens, UniProt P41143).
T2 construct: purchased Perkin Elmer RBHODM400UA; host or cells: Chinese Hamster Ovary cells (recombinant expression)
The assay is described as follows: Human Delta Opioid Receptor Binding Assay (CHO membranes, 3H-Naltrindole). Particulars: read-out: hKi δ. The method in brief:
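Compound displacement of tritiated naltrindole (6 nM working dilution) measured by scintillation counting after GF/C filtration. Receptor source: recombinant CHO membranes; buffer 50 mM Tris, 5 mM MgCl2, pH 7.5; 30 min room-temperature incubation. 1 μM cold naltrindole sets nonspecific binding.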

In assay [2] the target is T3, delta opioid receptor (CHO-hδ cell membranes) (Homo sapiens, UniProt P41143).
T3 construct: purchased Receptor Biology, Inc. (Baltimore, Md.); host or cells: CHO cells (recombinant expression)
Kind of assay: Delta Opioid Receptor Functional Assay: [35S]GTPγS Binding in CHO-hδ Cell Membranes, Version 1. Format: biochemical. The note with it: read-out: DOR GTP-binding Assay_v1 EC50. Here is the method:
CHO-hδ cell membranes were purchased from Receptor Biology, Inc. (Baltimore, Md.). 10 mg/ml of membrane protein suspended in 10 mM TRIS-HC pH 7.2, 2 mM EDTA, 10% sucrose.
Membranes were maintained at 4-8° C. A portion (1 ml) of membranes was added into 15 mL cold binding assay buffer. The assay buffer contained 50 mM HEPES, pH 7.6, 5 mM MgCl2, 100 mM NaCl, 1 mM DTT and 1 mM EDTA. The membrane suspension was homogenized with a Polytron for 2 times and centrifuged at 3000 rpm for 10 min. The supernent was then centrifuged at 18,000 rpm for 20 min. The pellet was saved in a tube and 10 ml assay buffer was added into the tube. The pellet and buffer were mixed with a Polytron.
The pellet membranes (20 μg/ml) were preincubated with SPA (10 mg/ml) at 25° C. for 45 min in the assay buffer. The SPA (5 mg/ml) coupled with membranes (10 μg/ml) was then incubated with 0.5 nM [^35S]GTPγS in the same HEPES buffer containing 50 μM GDP in total volume of 200 μl. Increasing concentrations of receptor agonists were used to stimulate [^35S]GTPγS binding. The basal binding was tested in the absent agonists and no specific binding was tested in the present 10 μM unlabeled GTPγS. The data were analyzed on a Top counter.
Data The % of Basal=(stimulate−non specific)*100/(basal−non specific). EC50 values were calculated using a Prism program.
For orientation: Binding of GTPγS marks nucleotide exchange on a G protein.

Where “and” joins values, the source holds several entries; their conditions need not be identical. Equal entries are not always repeated. Where two headings read alike, the source gives them in different places.

T1 sequence (P33533 whole entry): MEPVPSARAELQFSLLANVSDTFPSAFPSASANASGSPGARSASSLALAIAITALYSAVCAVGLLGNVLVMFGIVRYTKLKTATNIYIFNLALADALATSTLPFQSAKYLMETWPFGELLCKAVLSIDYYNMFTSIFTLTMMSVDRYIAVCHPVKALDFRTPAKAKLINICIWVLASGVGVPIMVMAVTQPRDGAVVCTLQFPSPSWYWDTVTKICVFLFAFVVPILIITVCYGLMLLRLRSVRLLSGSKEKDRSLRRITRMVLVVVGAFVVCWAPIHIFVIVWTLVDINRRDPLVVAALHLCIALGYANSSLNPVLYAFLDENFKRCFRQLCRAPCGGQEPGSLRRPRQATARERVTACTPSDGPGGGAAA
T2 sequence (P41143 whole entry): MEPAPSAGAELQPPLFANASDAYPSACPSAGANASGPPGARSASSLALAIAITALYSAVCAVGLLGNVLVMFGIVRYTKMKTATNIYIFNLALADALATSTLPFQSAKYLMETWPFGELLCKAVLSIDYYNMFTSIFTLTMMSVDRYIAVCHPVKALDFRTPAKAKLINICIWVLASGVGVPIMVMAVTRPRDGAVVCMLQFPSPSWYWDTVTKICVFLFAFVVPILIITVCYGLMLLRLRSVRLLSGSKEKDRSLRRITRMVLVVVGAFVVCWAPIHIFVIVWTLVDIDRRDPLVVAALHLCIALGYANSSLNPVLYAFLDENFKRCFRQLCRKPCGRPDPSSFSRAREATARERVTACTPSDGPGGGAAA
T3 sequence (P41143 whole entry): as above

For `COc1ccc(CN(Cc2nc(-c3ccccc3)c[nH]2)C(=O)[C@@H](N)Cc2ccc(C(N)=O)cc2)cc1C(=O)O` [Cpd 5], the Ki on delta opioid receptor (read-out: r Ki δ) was 630 nM and 183 nM.

Take `COc1ccc(CN(C(=O)[C@@H](N)Cc2ccc(C(N)=O)cc2)[C@@H](C)c2nc(-c3ccccc3)c[nH]2)cc1C(=O)O` [Cpd 4]: the Ki on delta opioid receptor (read-out: r Ki δ) was 11 nM and 17 nM.

Turning to `Cc1cc(O)cc(C)c1C[C@H](N)C(=O)N(C)[C@@H](C)c1nc(-c2ccccc2)c[nH]1` [Cpd 207], the Ki on delta opioid receptor (read-out: r Ki δ) was 5.3 nM and 5.37 nM and 14.7 nM; in assay [1], 132 nM. Moreover, in assay [2], the EC50 was 8.65 nM and 12 nM.

In the case of `Cc1cc(O)cc(C)c1C[C@H](N)C(=O)N(Cc1nc(-c2ccccc2)c(C)[nH]1)C(C)C` [Cpd 166], the Ki is 5.58 nM and 12 nM on delta opioid receptor (read-out: r Ki δ); 300 nM and 375 nM in assay [1]. Moreover, the EC50 in assay [2] was 21 nM and 71 nM.

For `Cc1cc(C(N)=O)cc(C)c1C[C@H](N)C(=O)N(Cc1ccccc1)[C@@H](C)c1nc(-c2ccccc2)c[nH]1` [Cpd 114], the Ki on delta opioid receptor (read-out: r Ki δ) was 12 nM; in assay [1], 49 nM. In addition, in assay [2], the EC50 worked out at 35 nM.

Consider `CCN(C(=O)[C@@H](N)Cc1c(C)cc(O)cc1C)[C@@H](C)c1nc(-c2ccccc2)c[nH]1` [Cpd 216], for which the Ki at delta opioid receptor (read-out: r Ki δ) stood at 1.14 nM. The concentration giving a half-maximal response (EC50) in assay [2] came to 16 nM.

`COc1ccc(CN(C(=O)[C@@H](N)Cc2ccc(O)cc2)[C@@H](C)c2nc(-c3ccccc3)c[nH]2)cc1C(=O)O` [Cpd 261]: the Ki at delta opioid receptor (read-out: r Ki δ) was determined as 8.01 nM.

Take `Cc1cc(O)cc(C)c1C[C@H](N)C(=O)N(Cc1nc(-c2ccccc2)c[nH]1)CC1CC1` [Cpd 192]: on delta opioid receptor (read-out: r Ki δ), the Ki stood at 7.64 nM. The 50% effective concentration (EC50) in assay [2] turned out to be 76 nM.

Turning to `Cc1cc(C(N)=O)cc(C)c1C[C@H](N)C(=O)N(Cc1cccc(C(=O)O)c1)[C@@H](C)c1nc(-c2ccccc2)c[nH]1` [Cpd 227], at delta opioid receptor (read-out: r Ki δ), the Ki is 0.08 nM and 0.46 nM.

On to `Cc1cc(O)cc(C)c1C[C@H](N)C(=O)N(Cc1ccccc1)[C@@H](C)c1nc(-c2ccccc2)c[nH]1` [Cpd 218], for which the Ki on delta opioid receptor (read-out: r Ki δ) stood at 1.45 nM; in assay [1], 189 nM. Further, the EC50 in assay [2] amounted to 20 nM.

On to `C[C@H](c1nc(-c2ccccc2)c[nH]1)N(C)C(=O)[C@@H](N)Cc1ccc(C(N)=O)cc1` [Cpd 203], for which the Ki on delta opioid receptor (read-out: r Ki δ) came out at 49.3 nM; in assay [1] it was 501 nM. The 50% effective concentration (EC50) in assay [2] is 515 nM.

As to `COc1ccc(CN(C(=O)[C@@H](N)Cc2c(C)cc(O)cc2C)[C@@H](C)c2nc(-c3ccccc3)c[nH]2)cc1C(=O)O` [Cpd 260], the Ki at delta opioid receptor (read-out: r Ki δ) was determined as 0.13 nM.

For `CC(C)N(Cc1nc(-c2ccccc2)c[nH]1)C(=O)[C@@H](N)Cc1ccc(O)cc1` [Cpd 195], the Ki at delta opioid receptor (read-out: r Ki δ) is 306 nM; in assay [1], more than 10000 nM.

As for `Cc1cc(C(N)=O)cc(C)c1C[C@H](N)C(=O)N(Cc1ccc(C(=O)O)o1)[C@@H](C)c1nc(-c2ccccc2)c[nH]1` [Cpd 256], on delta opioid receptor (read-out: r Ki δ), the Ki amounted to 3.82 nM.

For `Cc1cc(O)cc(C)c1C[C@H](N)C(=O)N(C)[C@@H](C)c1nc(Cc2ccccc2)c[nH]1` [Cpd 205], the Ki at delta opioid receptor (read-out: r Ki δ) was determined as 4.44 nM. In addition, in assay [2], the EC50 came out at 32 nM.

As to `Cc1cc(O)cc(C)c1C[C@H](N)C(=O)N(Cc1nc(-c2ccc(F)cc2)c(C)[nH]1)C(C)C` [Cpd 163], the Ki at delta opioid receptor (read-out: r Ki δ) is 4.51 nM; in assay [1] it was 301 nM and 63 nM. Further, the EC50 in assay [2] worked out at 21 nM.

With `COc1ccc(CN(C(=O)[C@@H](N)Cc2c(C)cc(C(N)=O)cc2C)[C@@H](C)c2nc(-c3ccccc3)c[nH]2)cc1OC` [Cpd 75], the Ki on delta opioid receptor (read-out: r Ki δ) was found to be 0.66 nM; in assay [1] it was 8.5 nM.

Regarding `Cc1cc(O)cc(C)c1C[C@H](N)C(=O)N(C)[C@H](C)c1nc(-c2ccccc2)c[nH]1` [Cpd 206], the figures for the Ki (at delta opioid receptor (read-out: r Ki δ); in assay [1]) were 5.8 nM and 275 nM, respectively. In addition, the concentration giving a half-maximal response (EC50) in assay [2] is 37 nM.

Take `CCN(C(=O)[C@@H](N)Cc1ccc(O)cc1)[C@H](C)c1nc(-c2ccccc2)c[nH]1` [Cpd 214]: the Ki on delta opioid receptor (read-out: r Ki δ) turned out to be 308 nM. In addition, in assay [2], the half-maximal effective concentration (EC50) amounted to 26000 nM.

In the case of `C[C@H](c1nc(-c2ccccc2)c[nH]1)N(Cc1ccccc1)C(=O)[C@@H](N)Cc1ccc(O)cc1` [Cpd 221], the Ki on delta opioid receptor (read-out: r Ki δ) was determined as 9.58 nM. For the same molecule, the concentration for a half-maximal effect (EC50) in assay [2] came out at 308 nM.

With `CCN(C(=O)[C@@H](N)Cc1c(C)cc(O)cc1C)[C@H](C)c1nc(-c2ccccc2)c[nH]1` [Cpd 217], the Ki came out at 5.4 nM on delta opioid receptor (read-out: r Ki δ) and 506 nM in assay [1]. Besides, the EC50 in assay [2] was 82 nM.

Turning to `Cc1cc(O)cc(C)c1C[C@H](N)C(=O)N(Cc1ccnc2ccccc12)[C@@H](C)c1nc(-c2ccccc2)c[nH]1` [Cpd 246], on delta opioid receptor (read-out: r Ki δ), the Ki is 0.035 nM.

With `Cc1cc(C(N)=O)cc(C)c1C[C@H](N)C(=O)N(Cc1ccc(C(=O)O)cc1)[C@@H](C)c1nc(-c2ccccc2)c[nH]1` [Cpd 50], at delta opioid receptor (read-out: r Ki δ), the Ki came to 0.58 nM.

Regarding `CCN(C(=O)[C@@H](N)Cc1ccc(O)cc1)[C@@H](C)c1nc(-c2ccccc2)c[nH]1` [Cpd 215], at delta opioid receptor (read-out: r Ki δ), the Ki came to 126 nM. Besides, in assay [2], the EC50 was 1060 nM.

`Cc1cc(O)cc(C)c1C[C@H](N)C(=O)N(Cc1nc(-c2ccccc2)c[nH]1)C(C)C` [Cpd 194]: the Ki on delta opioid receptor (read-out: r Ki δ) worked out at 14.8 nM; in assay [1], 103 nM. Moreover, in assay [2], the concentration giving a half-maximal response (EC50) came out at 189 nM.

For `COc1ccc(CN(C(=O)[C@@H](N)Cc2c(C)cc(C(N)=O)cc2C)[C@@H](C)c2nc(-c3ccccc3)c[nH]2)cc1-c1nnn[nH]1` [Cpd 8], on delta opioid receptor (read-out: r Ki δ), the Ki was 0.43 nM and 0.15 nM.

As to `Cc1ccccc1-c1nc(CN(C(=O)[C@@H](N)Cc2c(C)cc(O)cc2C)C(C)C)[nH]c1C` [Cpd 165], the Ki turned out to be 23.6 nM at delta opioid receptor (read-out: r Ki δ) and 322 nM in assay [1]. In addition, the 50% effective concentration (EC50) in assay [2] stood at 231 nM.

In the case of `CC(C)N(C(=O)[C@@H](N)Cc1ccc(O)cc1)[C@@H](C)c1nc(-c2ccccc2)c[nH]1` [Cpd 225], at delta opioid receptor (read-out: r Ki δ), the Ki worked out at 112 nM. In addition, the EC50 in assay [2] worked out at 2190 nM.

Turning to `C[C@@H](c1nc(-c2ccccc2)c[nH]1)N(Cc1ccccc1)C(=O)[C@@H](N)Cc1ccc(O)cc1` [Cpd 219], the Ki on delta opioid receptor (read-out: r Ki δ) is 87.8 nM. Also, the EC50 in assay [2] was 3560 nM.

On to `Cc1cc(C(N)=O)cc(C)c1C[C@H](N)C(=O)N(Cc1cccc(-c2nnn[nH]2)c1)[C@@H](C)c1nc(-c2ccccc2)c[nH]1` [Cpd 242], for which the Ki on delta opioid receptor (read-out: r Ki δ) was 0.18 nM.

With `COc1ccc(CN(C(=O)[C@@H](N)Cc2c(C)cc(C(N)=O)cc2C)[C@@H](C)c2nc(-c3ccccc3)c[nH]2)cc1C(=O)O` [Cpd 18], the Ki on delta opioid receptor (r Ki δ) is 0.38 to 14.4 nM.

As to `Cc1cc(O)cc(C)c1C[C@H](N)C(=O)N(C)Cc1nc(-c2ccccc2)c[nH]1` [Cpd 199], the values for the Ki (at delta opioid receptor (read-out: r Ki δ); in assay [1]) were 26.3 nM and 209 nM, respectively. Also, in assay [2], the EC50 was 217 nM.

For the molecule `COC(=O)c1cc(CN(C(=O)[C@@H](N)Cc2c(C)cc(C(N)=O)cc2C)[C@@H](C)c2nc(-c3ccccc3)c[nH]2)ccc1OC` [Cpd 17], the Ki on delta opioid receptor (read-out: r Ki δ) amounted to 60 nM.

`Cc1cc(O)cc(C)c1C[C@H](N)C(=O)N(Cc1nc(-c2cc(C(F)(F)F)cc(C(F)(F)F)c2)c(C)[nH]1)C(C)C` [Cpd 164]: the Ki at delta opioid receptor (read-out: r Ki δ) was determined as 120 nM. Moreover, the EC50 in assay [2] worked out at 2500 nM.

Take `Cc1cc(O)cc(C)c1C[C@H](N)C(=O)N(Cc1nc(-c2ccccc2)c[nH]1)C1CCCCC1` [Cpd 190]: the Ki at delta opioid receptor (read-out: r Ki δ) stood at 13.8 nM; in assay [1], 285 nM. Also, the 50% effective concentration (EC50) in assay [2] was found to be 3830 nM.

As a reminder, the EC50 is the concentration at which the effect is half-maximal.
